Laboratory results published in PubChem BioAssay AID1963975 (Molecular Pharmacology Branch, DTP, NCI, 2024).

System: 624824-186-R-J2-PDC multicell spheroids, viability
Assay: Anticancer human tumor 624824-186-R-J2-PDC patient-derived colon adenocarcinoma cell line growth inhibition [PI3K]
Settings: for IC50: curve of first compound; for viability, T/C: stronger effect = lower value
Summary of the method: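 Three cell types, namely tumor cells, endothelial cells and mesenchymal stem cells, formed each spheroid. Combinations with four PI3K inhibitors were screened at clinically achievable concentrations decreasing by half-log, and spheroid viability was recorded.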

[1] = second compound 0.0316 µM, first compound 0.0316 µM
[2] = second compound 0.0316 µM, first compound 0.1 µM
[3] = second compound 0.0316 µM, first compound 0.316 µM
[4] = second compound 0.0316 µM, first compound 1 µM
[5] = second compound 0.1 µM, first compound 0.0316 µM
[6] = second compound 0.1 µM, first compound 0.1 µM
[7] = second compound 0.1 µM, first compound 0.316 µM
[8] = second compound 0.1 µM, first compound 1 µM
[9] = second compound 0.316 µM, first compound 0.0316 µM
[10] = second compound 0.316 µM, first compound 0.1 µM
[11] = second compound 0.316 µM, first compound 0.316 µM
[12] = second compound 0.316 µM, first compound 1 µM
[13] = second compound 1 µM, first compound 0.0316 µM
[14] = second compound 1 µM, first compound 0.1 µM
[15] = second compound 1 µM, first compound 0.316 µM
[16] = second compound 1 µM, first compound 1 µM
[17] = second compound 3.16 µM, first compound 0.0316 µM
[18] = second compound 3.16 µM, first compound 0.1 µM
[19] = second compound 3.16 µM, first compound 0.316 µM
[20] = second compound 3.16 µM, first compound 1 µM
[21] = second compound 10 µM, first compound 0.0316 µM
[22] = second compound 10 µM, first compound 0.1 µM
[23] = second compound 10 µM, first compound 0.316 µM
[24] = second compound 10 µM, first compound 1 µM
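Note: spheroids exposed to agents for 7 days before viability read.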
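Throughout, for viability, T/C: 100% = DMSO vehicle treated spheroids.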

Structure (SMILES): CC(C)NCC(C(=O)N1CCN(c2ncnc3c2C(C)CC3O)CC1)c1ccc(Cl)cc1 (centres undefined) + CC(Nc1ncnc2nc[nH]c12)c1cc2cccc(Cl)c2c(=O)n1-c1ccccc1
- IC50 (second compound 0.0316 µM): > 10 µM
- IC50 (second compound 0.1 µM): > 10 µM
- IC50 (second compound 0.316 µM): > 10 µM
- IC50 (second compound 1 µM): > 10 µM
- IC50 (second compound 3.16 µM): > 10 µM
- IC50 (second compound 10 µM): > 10 µM
- viability, T/C [1]: 86.1%
- viability, T/C [2]: 87.8%
- viability, T/C [3]: 75.5%
- viability, T/C [4]: 89.6%
- viability, T/C (second compound 0.0316 µM, first compound 3.16 µM): 88.4%
- viability, T/C (second compound 0.0316 µM, first compound 10 µM): 89.4%
- viability, T/C [5]: 111%
- viability, T/C [6]: 84.9%
- viability, T/C [7]: 88.4%
- viability, T/C [8]: 82.2%
- viability, T/C (second compound 0.1 µM, first compound 3.16 µM): 85%
- viability, T/C (second compound 0.1 µM, first compound 10 µM): 86.6%
- viability, T/C [9]: 112%
- viability, T/C [10]: 113%
- viability, T/C [11]: 71.3%
- viability, T/C [12]: 95.6%
- viability, T/C (second compound 0.316 µM, first compound 3.16 µM): 81%
- viability, T/C (second compound 0.316 µM, first compound 10 µM): 74.7%
- viability, T/C [13]: 106%
- viability, T/C [14]: 96.2%
- viability, T/C [15]: 99.4%
- viability, T/C [16]: 85%
- viability, T/C (second compound 1 µM, first compound 3.16 µM): 90.8%
- viability, T/C (second compound 1 µM, first compound 10 µM): 89.3%
- viability, T/C [17]: 85.6%
- viability, T/C [18]: 104%
- viability, T/C [19]: 100%
- viability, T/C [20]: 82.1%
- viability, T/C (second compound 3.16 µM, first compound 3.16 µM): 88.1%
- viability, T/C (second compound 3.16 µM, first compound 10 µM): 87.2%
- viability, T/C [21]: 98.7%
- viability, T/C [22]: 108%
- viability, T/C [23]: 103%
- viability, T/C [24]: 88.1%
- viability, T/C (second compound 10 µM, first compound 3.16 µM): 75.5%
- viability, T/C (second compound 10 µM, first compound 10 µM): 71.4%

Structure (SMILES): CCN1CCN(Cc2ccc(Nc3ncc(F)c(-c4cc(F)c5nc(C)n(C(C)C)c5c4)n3)nc2)CC1 + CC(Nc1ncnc2nc[nH]c12)c1cc2cccc(Cl)c2c(=O)n1-c1ccccc1
- IC50 (second compound 0.0316 µM): > 1 µM
- IC50 (second compound 0.1 µM): > 1 µM
- IC50 (second compound 0.316 µM): > 1 µM
- IC50 (second compound 1 µM): > 1 µM
- IC50 (second compound 3.16 µM): > 1 µM
- IC50 (second compound 10 µM): > 1 µM
- viability, T/C (second compound 0.0316 µM, first compound 0.00316 µM): 91.4%
- viability, T/C (second compound 0.0316 µM, first compound 0.01 µM): 125%
- viability, T/C [1]: 77.5%
- viability, T/C [2]: 83.9%
- viability, T/C [3]: 85.3%
- viability, T/C [4]: 101%
- viability, T/C (second compound 0.1 µM, first compound 0.00316 µM): 121%
- viability, T/C (second compound 0.1 µM, first compound 0.01 µM): 100%
- viability, T/C [5]: 100%
- viability, T/C [6]: 102%
- viability, T/C [7]: 88.1%
- viability, T/C [8]: 115%
- viability, T/C (second compound 0.316 µM, first compound 0.00316 µM): 99.8%
- viability, T/C (second compound 0.316 µM, first compound 0.01 µM): 96.2%
- viability, T/C [9]: 95.5%
- viability, T/C [10]: 66.9%
- viability, T/C [11]: 92%
- viability, T/C [12]: 112%
- viability, T/C (second compound 1 µM, first compound 0.00316 µM): 104%
- viability, T/C (second compound 1 µM, first compound 0.01 µM): 72.2%
- viability, T/C [13]: 85.8%
- viability, T/C [14]: 81.4%
- viability, T/C [15]: 93.7%
- viability, T/C [16]: 102%
- viability, T/C (second compound 3.16 µM, first compound 0.00316 µM): 91%
- viability, T/C (second compound 3.16 µM, first compound 0.01 µM): 86.5%
- viability, T/C [17]: 77.3%
- viability, T/C [18]: 95.8%
- viability, T/C [19]: 111%
- viability, T/C [20]: 112%
- viability, T/C (second compound 10 µM, first compound 0.00316 µM): 120%
- viability, T/C (second compound 10 µM, first compound 0.01 µM): 100%
- viability, T/C [21]: 114%
- viability, T/C [22]: 91.6%
- viability, T/C [23]: 91.2%
- viability, T/C [24]: 101%
